According to US8425908B2, “Treatment with anti-ErbB2 antibodies” (Genentech, Inc., priority 1997, dated 2013):

System: ErbB2-overexpressing metastatic breast cancer
Assay: Randomized clinical study of chemotherapy with or without HERCEPTIN in patients with metastatic breast cancer
Format: in vivo, human
From the text: Eligibility Criteria Patients had to fulfill all of the following criteria to be eligible for study admission: • Metastatic breast cancer • Overexpression of the ErbB2 (HER2) oncogene (2+ to 3+ as determined by immunohistochemistry or fluorescence in situ hybridization (FISH). [Tumor expression of ErbB2 can be determined by immunohistochemical analysis, as previously described (Slamon et al., [1987] and [1989], supra), of a set of thin sections prepared from the patient's paraffin-archived tumor blocks. The primary detecting antibody used is murine 4D5 MAb, which has the same CDRs as the humanized antibody used for the treatment.
Measurable disease was defined as any mass reproducibly measurable in two perpendicular diameters by physical examination, X-ray (plain films), computerized tomography (CT), magnetic resonance imaging (MRI), ultrasound, or photographs.
Osteoblastic metastases, pleural effusions, or ascites were not considered to be measurable. Measurable lesions must be at least 1 cm in greatest dimension. Enumeration of evaluable sites of metastatic disease and number of lesions in an evaluable site (e.g. lung) had to be recorded on the appropriate Case Report Form (CRF). If a large number of pulmonary or hepatic lesions were present, the six largest lesions per site were followed. • The ability to understand and willingness to sign a written informed consent form • Women≧18 years • Suitable candidates for receiving concomitant cytotoxic chemotherapy as evidenced by screening laboratory assessments of hematologic, renal, hepatic, and metabolic functions.
Exclusion Criteria Patients with any of the following were excluded from study entry: • Prior cytotoxic chemotherapy for metastatic breast cancer Patients may have received prior hormonal therapy (e.g. tamoxifen) for metastatic disease or cytotoxic therapy in the adjuvant setting. • Concomitant malignancy that has not been curatively treated • A performance status of <60% on the Karnofsky scale • Pregnant or nursing women; women of childbearing potential, unless using effective contraception as determined by the investigator • Bilateral breast cancer (either both primary tumors must have 2+ to 3+ HER2 overexpression, or the metastatic site must have 2+ to 3+ HER2 overexpression) • Use of investigational or unlicensed agents within 30 days prior to study entry • Clinically unstable or untreated metastases to the brain (e.g. requiring radiation therapy)
Half the patients (stratified by chemotherapy) were randomized to additionally receive the HERCEPTIN® antibody (see below).
Beginning on day 7, patients received weekly administration of 2 mg/kg antibody (i.v.) over a 90-minute period. […]

[1] = median follow-up of 10.5 months

For CC(=O)O[C@H]1C(=O)[C@@]2(C)[C@H]([C@H](OC(=O)c3ccccc3)[C@]3(O)C[C@H](OC(=O)[C@H](O)[C@@H](NC(=O)c4ccccc4)c4ccccc4)C(C)=C1C3(C)C)[C@]1(OC(C)=O)CO[C@@H]1C[C@@H]2O [T, paclitaxel], the “syndrome of myocardial dysfunction, Grade 3/4” value was 0%, the “AE (%), overall severe adverse events” value [1] was 59% and the “RR (%), response rates” value [1] was 25.0%. The “TTP (months), time to disease progression” value [1] was 4.2 months.
